Assays:
wild oat [1] = experiment: Test Example 5: herbicidal effect by foliage application, plastic box (Table 20, symbol I); assay type: in vivo, wild oat (Avena fatua); settings: foliage application, 320 g/ha, three weeks after application
Method in brief: (§1)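 Foliar spray test: emulsion formulation diluted in water to a set application rate, sprayed onto 14-day-old plants raised in diluvial soil at 25° C to 30° C under glass. Both herbicidal effect and crop effect rated visually three weeks later.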

redroot pigweed [2] = experiment: Test Example 5: herbicidal effect by foliage application, plastic box (Table 20, symbol N); assay type: in vivo, redroot pigweed (Amaranthus retroflexus); settings: foliage application, 320 g/ha, three weeks after application
Method in brief: as §1

Italian ryegrass [3] = experiment: Test Example 4: herbicidal effect by soil treatment (Table 19, symbol K); assay type: in vivo, Italian ryegrass (Lolium multiflorum); settings: amount of applied herbicide 320 g/ha
Method in brief: (§2)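 Herbicidal effect was rated 3 weeks after treatment, using the scoring criteria of an earlier test. The compound, formulated as an emulsion and diluted in water to a set herbicide amount, had been sprayed uniformly on soil over freshly sown seeds. Growth took place in a greenhouse at 25° C. to 30° C.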

southern crabgrass [4] = experiment: Test Example 5: herbicidal effect by foliage application, plastic box (Table 20, symbol F); assay type: in vivo, southern crabgrass (Digitaria ciliaris); settings: foliage application, 320 g/ha, three weeks after application
Method in brief: as §1

wild oat [5] = experiment: Test Example 4: herbicidal effect by soil treatment (Table 19, symbol I); assay type: in vivo, wild oat (Avena fatua); settings: amount of applied herbicide 320 g/ha
Method in brief: as §2

lambsquarters [6] = experiment: Test Example 4: herbicidal effect by soil treatment (Table 19, symbol O); assay type: in vivo, lambsquarters (Chenopodium album); settings: amount of applied herbicide 320 g/ha
Method in brief: as §2

false cleavers [7] = experiment: Test Example 4: herbicidal effect by soil treatment (Table 19, symbol Q); assay type: in vivo, false cleavers (Galium spurium); settings: amount of applied herbicide 320 g/ha
Method in brief: as §2

windgrass [8] = experiment: Test Example 4: herbicidal effect by soil treatment (Table 19, symbol L); assay type: in vivo, windgrass (Apera spica-venti); settings: amount of applied herbicide 320 g/ha
Method in brief: as §2

velvetleaf [9] = experiment: Test Example 5: herbicidal effect by foliage application, plastic box (Table 20, symbol M); assay type: in vivo, velvetleaf (Abutilon theophrasti); settings: foliage application, 320 g/ha, three weeks after application
Method in brief: as §1

persian speedwell [10] = experiment: Test Example 5: herbicidal effect by foliage application, plastic box (Table 20, symbol R); assay type: in vivo, Persian speedwell (Veronica persica); settings: foliage application, 320 g/ha, three weeks after application
Method in brief: as §1

barnyard grass [11] = experiment: Test Example 5: herbicidal effect by foliage application, plastic box (Table 20, symbol H); assay type: in vivo, barnyard grass (Echinochloa crus-galli); settings: foliage application, 320 g/ha, three weeks after application
Method in brief: as §1

blackgrass [12] = experiment: Test Example 4: herbicidal effect by soil treatment (Table 19, symbol J); assay type: in vivo, blackgrass (Alopecurus myosuroides); settings: amount of applied herbicide 320 g/ha
Method in brief: as §2

velvetleaf [13] = experiment: Test Example 4: herbicidal effect by soil treatment (Table 19, symbol M); assay type: in vivo, velvetleaf (Abutilon theophrasti); settings: amount of applied herbicide 320 g/ha
Method in brief: as §2

redroot pigweed [14] = experiment: Test Example 4: herbicidal effect by soil treatment (Table 19, symbol N); assay type: in vivo, redroot pigweed (Amaranthus retroflexus); settings: amount of applied herbicide 320 g/ha
Method in brief: as §2

Italian ryegrass [15] = experiment: Test Example 5: herbicidal effect by foliage application, plastic box (Table 20, symbol K); assay type: in vivo, Italian ryegrass (Lolium multiflorum); settings: foliage application, 320 g/ha, three weeks after application
Method in brief: as §1

blackgrass [16] = experiment: Test Example 5: herbicidal effect by foliage application, plastic box (Table 20, symbol J); assay type: in vivo, blackgrass (Alopecurus myosuroides); settings: foliage application, 320 g/ha, three weeks after application
Method in brief: as §1

chickweed [17] = experiment: Test Example 5: herbicidal effect by foliage application, plastic box (Table 20, symbol P); assay type: in vivo, common chickweed (Stellaria media); settings: foliage application, 320 g/ha, three weeks after application
Method in brief: as §1

barnyard grass [18] = experiment: Test Example 3: herbicidal effect by foliage application, Wagner pot (Table 18, symbol H); assay type: in vivo, barnyard grass (Echinochloa crus-galli); settings: 320 g/ha
Method in brief: (§3)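 Plants were sown in alluvial soil held under 0.1–0.5 cm standing water and grown 14 days in a greenhouse at 25–30 °C. An emulsifiable formulation, water-diluted to the set dose, was then sprayed onto the foliage, and effects were scored three weeks later using previously defined criteria.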

green foxtail [19] = experiment: Test Example 5: herbicidal effect by foliage application, plastic box (Table 20, symbol G); assay type: in vivo, green foxtail (Setaria viridis); settings: foliage application, 320 g/ha, three weeks after application
Method in brief: as §1

false cleavers [20] = experiment: Test Example 5: herbicidal effect by foliage application, plastic box (Table 20, symbol Q); assay type: in vivo, false cleavers (Galium spurium); settings: foliage application, 320 g/ha, three weeks after application
Method in brief: as §1

southern crabgrass [21] = experiment: Test Example 4: herbicidal effect by soil treatment (Table 19, symbol F); assay type: in vivo, southern crabgrass (Digitaria ciliaris); settings: amount of applied herbicide 320 g/ha
Method in brief: as §2

lambsquarters [22] = experiment: Test Example 5: herbicidal effect by foliage application, plastic box (Table 20, symbol O); assay type: in vivo, lambsquarters (Chenopodium album); settings: foliage application, 320 g/ha, three weeks after application
Method in brief: as §1

chickweed [23] = experiment: Test Example 4: herbicidal effect by soil treatment (Table 19, symbol P); assay type: in vivo, common chickweed (Stellaria media); settings: amount of applied herbicide 320 g/ha
Method in brief: as §2

Chinese sprangletop = experiment: Test Example 3: herbicidal effect by foliage application, Wagner pot (Table 18, symbol D); assay type: in vivo, chinese sprangletop (Leptochloa chinensis); settings: 320 g/ha
Method in brief: as §3

rice flat sedge = experiment: Test Example 3: herbicidal effect by foliage application, Wagner pot (Table 18, symbol E); assay type: in vivo, rice flat sedge (Cyperus iria); settings: 320 g/ha
Method in brief: as §3

persian speedwell [24] = experiment: Test Example 4: herbicidal effect by soil treatment (Table 19, symbol R); assay type: in vivo, Persian speedwell (Veronica persica); settings: amount of applied herbicide 320 g/ha
Method in brief: as §2

windgrass [25] = experiment: Test Example 5: herbicidal effect by foliage application, plastic box (Table 20, symbol L); assay type: in vivo, windgrass (Apera spica-venti); settings: foliage application, 320 g/ha, three weeks after application
Method in brief: as §1

barnyard grass [26] = experiment: Test Example 4: herbicidal effect by soil treatment (Table 19, symbol H); assay type: in vivo, barnyard grass (Echinochloa crus-galli); settings: amount of applied herbicide 320 g/ha
Method in brief: as §2

green foxtail [27] = experiment: Test Example 4: herbicidal effect by soil treatment (Table 19, symbol G); assay type: in vivo, green foxtail (Setaria viridis); settings: amount of applied herbicide 320 g/ha
Method in brief: as §2

CSc1ccc(-c2sc3ccccc3c2-c2c(O)c(C)nn(C)c2=O)cc1 [1-036]
herbicidal effect grade, I: wild oat (wild oat [1]): 2 (Herbicidal rate of 20% or more and less than 40%) | herbicidal effect grade, N: redroot pigweed (redroot pigweed [2]): 5 (Herbicidal rate of 90% or more (almost completely withered)) | herbicidal effect rating, K: Italian ryegrass (Italian ryegrass [3]): 5 (Herbicidal rate of 90% or more (almost completely withered)) | herbicidal effect grade, F: southern crabgrass (southern crabgrass [4]): 0 (Herbicidal rate of 5% or less (almost no effect)) | herbicidal effect rating, I: wild oat (wild oat [5]): 0 (Herbicidal rate of 5% or less (almost no effect)) | herbicidal effect rating, O: lambsquarters (lambsquarters [6]): 5 (Herbicidal rate of 90% or more (almost completely withered)) | herbicidal effect rating, Q: false cleavers (false cleavers [7]): 0 (Herbicidal rate of 5% or less (almost no effect)) | herbicidal effect rating, L: windgrass (windgrass [8]): 0 (Herbicidal rate of 5% or less (almost no effect)) | herbicidal effect grade, M: velvetleaf (velvetleaf [9]): 5 (Herbicidal rate of 90% or more (almost completely withered)) | herbicidal effect grade, R: persian speedwell (persian speedwell [10]): 5 (Herbicidal rate of 90% or more (almost completely withered)) | herbicidal effect grade, H: barnyard grass (barnyard grass [11]): 4 (Herbicidal rate of 70% or more and less than 90%) | herbicidal effect rating, J: blackgrass (blackgrass [12]): 0 (Herbicidal rate of 5% or less (almost no effect)) | herbicidal effect rating, M: velvetleaf (velvetleaf [13]): 2 (Herbicidal rate of 20% or more and less than 40%) | herbicidal effect rating, N: redroot pigweed (redroot pigweed [14]): 5 (Herbicidal rate of 90% or more (almost completely withered)) | herbicidal effect grade, K: Italian ryegrass (Italian ryegrass [15]): 4 (Herbicidal rate of 70% or more and less than 90%) | herbicidal effect grade, J: blackgrass (blackgrass [16]): 4 (Herbicidal rate of 70% or more and less than 90%) | herbicidal effect grade, P: chickweed (chickweed [17]): 5 (Herbicidal rate of 90% or more (almost completely withered)) | herbicidal effect on H (barnyard grass), rating 0-5 (barnyard grass [18]): 5 (Herbicidal rate of 90% or more (almost completely withered)) | herbicidal effect grade, G: green foxtail (green foxtail [19]): 4 (Herbicidal rate of 70% or more and less than 90%) | herbicidal effect grade, Q: false cleavers (false cleavers [20]): 4 (Herbicidal rate of 70% or more and less than 90%) | herbicidal effect rating, F: southern crabgrass (southern crabgrass [21]): 0 (Herbicidal rate of 5% or less (almost no effect)) | herbicidal effect grade, O: lambsquarters (lambsquarters [22]): 4 (Herbicidal rate of 70% or more and less than 90%) | herbicidal effect rating, P: chickweed (chickweed [23]): 5 (Herbicidal rate of 90% or more (almost completely withered)) | herbicidal effect on D (Chinese sprangletop), rating 0-5 (Chinese sprangletop): 3 (Herbicidal rate of 40% or more and less than 70%) | herbicidal effect on E (rice flat sedge), rating 0-5 (rice flat sedge): 5 (Herbicidal rate of 90% or more (almost completely withered)) | herbicidal effect rating, R: persian speedwell (persian speedwell [24]): 5 (Herbicidal rate of 90% or more (almost completely withered)) | herbicidal effect grade, L: windgrass (windgrass [25]): 3 (Herbicidal rate of 40% or more and less than 70%) | herbicidal effect rating, H: barnyard grass (barnyard grass [26]): 4 (Herbicidal rate of 70% or more and less than 90%)

CCCC(=O)Oc1c(C)nn(C)c(=O)c1-c1c(-c2ccc3c(c2)OCCO3)sc2cc(Cl)ccc12 [3-048]
I: wild oat, herbicidal effect grade (wild oat [1]): 0 (Herbicidal rate of 5% or less (almost no effect)) | N: redroot pigweed, herbicidal effect grade (redroot pigweed [2]): 3 (Herbicidal rate of 40% or more and less than 70%) | K: Italian ryegrass, herbicidal effect grade (Italian ryegrass [3]): 0 (Herbicidal rate of 5% or less (almost no effect)) | F: southern crabgrass, herbicidal effect grade (southern crabgrass [4]): 0 (Herbicidal rate of 5% or less (almost no effect)) | I: wild oat, herbicidal effect grade (wild oat [5]): 0 (Herbicidal rate of 5% or less (almost no effect)) | O: lambsquarters, herbicidal effect grade (lambsquarters [6]): 0 (Herbicidal rate of 5% or less (almost no effect)) | Q: false cleavers, herbicidal effect grade (false cleavers [7]): 4 (Herbicidal rate of 70% or more and less than 90%) | L: windgrass, herbicidal effect grade (windgrass [8]): 0 (Herbicidal rate of 5% or less (almost no effect)) | M: velvetleaf, herbicidal effect grade (velvetleaf [9]): 1 (Herbicidal rate of 5% or more and less than 20%) | H: barnyard grass, herbicidal effect grade (barnyard grass [11]): 0 (Herbicidal rate of 5% or less (almost no effect)) | G: green foxtail, herbicidal effect grade (green foxtail [27]): 0 (Herbicidal rate of 5% or less (almost no effect)) | J: blackgrass, herbicidal effect grade (blackgrass [12]): 0 (Herbicidal rate of 5% or less (almost no effect)) | M: velvetleaf, herbicidal effect grade (velvetleaf [13]): 0 (Herbicidal rate of 5% or less (almost no effect)) | N: redroot pigweed, herbicidal effect grade (redroot pigweed [14]): 0 (Herbicidal rate of 5% or less (almost no effect)) | K: Italian ryegrass, herbicidal effect grade (Italian ryegrass [15]): 0 (Herbicidal rate of 5% or less (almost no effect)) | J: blackgrass, herbicidal effect grade (blackgrass [16]): 0 (Herbicidal rate of 5% or less (almost no effect)) | P: chickweed, herbicidal effect grade (chickweed [17]): 5 (Herbicidal rate of 90% or more (almost completely withered)) | herbicidal effect on barnyard grass (H) (barnyard grass [18]): 4 (Herbicidal rate of 70% or more and less than 90%) | G: green foxtail, herbicidal effect grade (green foxtail [19]): 0 (Herbicidal rate of 5% or less (almost no effect)) | Q: false cleavers, herbicidal effect grade (false cleavers [20]): 4 (Herbicidal rate of 70% or more and less than 90%) | F: southern crabgrass, herbicidal effect grade (southern crabgrass [21]): 0 (Herbicidal rate of 5% or less (almost no effect)) | O: lambsquarters, herbicidal effect grade (lambsquarters [22]): 3 (Herbicidal rate of 40% or more and less than 70%) | P: chickweed, herbicidal effect grade (chickweed [23]): 1 (Herbicidal rate of 5% or more and less than 20%) | herbicidal effect on Chinese sprangletop (D) (Chinese sprangletop): 0 (Herbicidal rate of 5% or less (almost no effect)) | herbicidal effect on rice flat sedge (E) (rice flat sedge): 2 (Herbicidal rate of 20% or more and less than 40%) | R: persian speedwell, herbicidal effect grade (persian speedwell [24]): 0 (Herbicidal rate of 5% or less (almost no effect)) | L: windgrass, herbicidal effect grade (windgrass [25]): 0 (Herbicidal rate of 5% or less (almost no effect)) | H: barnyard grass, herbicidal effect grade (barnyard grass [26]): 0 (Herbicidal rate of 5% or less (almost no effect))

From patent publication US20230085307A1, “PYRIDAZINONE COMPOUND AND HERBICIDE” (NISSAN CHEMICAL CORPORATION, priority 2019, published 2023)
